Experimental findings from paper PMC10294659, “Cryo-EM Structures of the Klebsiella pneumoniae AcrB Multidrug Efflux Pump” (mBio, 2023) are described below.

In general, Kd refers to the concentration at which binding is half-saturated. What is called stoichiometry N is a count of units in the complex or per binding partner.

Assay [1] has as its target T1, KpAcrB (K. pneumoniae AcrB multidrug efflux pump) (Klebsiella pneumoniae, UniProt W9B4M6).
T1 construct: full-length, 1,048 residues (model 1-1033), N-terminal 6xHis tag, pET15b, expressed in E. coli BL21(DE3) delta-acrB; homotrimer; in DDM for MST, in MSP1E3D1 lipid nanodiscs for cryo-EM
The assay can be described thus: microscale thermophoresis (label-free); cryo-EM structure of the complex also solved. Type of assay: binding. On the technique in general: MST reads how a fluorescent partner responds to local heating, with and without ligand.

Assay [2] addresses Klebsiella pneumoniae AcrB multidrug efflux pump (Klebsiella pneumoniae) (UniProt W9B4M6). Put plainly: cryo-EM structure; single-particle cryo-EM of 10 uM KpAcrB in lipidic nanodiscs (MSP 1E3D1, E. coli total extract lipid; 20 mM Tris-HCl pH 7.5, 100 mM NaCl); apo, and after 2 h with 500 uM erythromycin.

`CC[C@H]1OC(=O)[C@H](C)[C@@H](O[C@H]2C[C@@](C)(OC)[C@@H](O)[C@H](C)O2)[C@H](C)[C@@H](O[C@@H]2O[C@H](C)C[C@H](N(C)C)[C@H]2O)[C@](C)(O)C[C@@H](C)C(=O)[C@H](C)[C@@H](O)[C@]1(C)O` [erythromycin] yielded a Kd in assay [1] of 14.4 ± 2.6 µM. Molecule “Klebsiella pneumoniae AcrB multidrug efflux pump (from UniProt W9B4M6 1-1048) (natural protein)” came in with a stoichiometry N in assay [2] of 3.
